Data as given in patent US20070161665A1, “Cancer treatment method” (priority 2003, published 2007).
Structures can show the parent of a compound that is named as a salt. Where two headings read alike, the source gives them in different places.

Tests used:
AKT2 = AKT2 (Homo sapiens, UniProt P31751); experiment: Inhibition of AKT isoforms, enzyme IC50; assay type: biochemical
AKT3 = AKT3 (Homo sapiens, UniProt Q9Y243); experiment: Inhibition of AKT isoforms, enzyme IC50; assay type: biochemical
AKT1 = AKT1 (Homo sapiens, UniProt P31749); experiment: Inhibition of AKT isoforms, enzyme IC50; assay type: biochemical
HN5 cells = experiment: Roche Cell Death ELISAPlus apoptosis assay in HN5 cells (median effect and sensitization ratio analysis); assay type: cell-based
Protocol: HN5 cells are LICR-LON-HN5 head and neck carcinoma cells, which were a gift from the Institute of Cancer Research, Surrey, U.K.
(§1) Cell lines were grown in RPMI-1640 supplemented with 25 mM HEPES, 10 mM glutamine and 10% fetal bovine serum and maintained at 37° C. and 5% CO2 in a humid incubator. Assays were performed in 96 well microtiter plates with optimum seeding densities for each cell line.
(§2) Apoptosis was measured using the Roche Cell Death ELISA^Plus kit (catalog 1 774 425) which detects fragmented nucleosomal DNA that is generated during apoptosis.
Synergistic interaction between compounds was analyzed by the median effect method described by Chou and Talalay (Adv. Enzyme Regul. 22: 27-55, 1984). Briefly, if the two compounds fit the mutually exclusive model of Chou, one calculates the combination index (CI) using the formula CI=((D)1/(Dx)1)+((D)2/(Dx)2) (1) where (D)1 is the concentration of drug 1 in the combination that gives “x” percent apoptosis, (D)2 is the same for drug 2, and (Dx)1 and (Dx)2 are the concentrations of drug 1 or 2 that give “x” percent apoptosis when used alone. (D)1 and (D)2 are known from the composition of the combination and (Dx)1 and (Dx)2 can be calculated from the equation Dx=Dm*[fa/(1−fa)]^1/m (2) where Dm is the concentration of drug giving 50% effect, fa is the fraction affected, and m is the slope from the median effect plot of log (fa/fu) where fu is the fraction unaffected versus log (D). A CI less than 1 indicates synergy, equal to 1 indicates additivity and greater than 1 antagonism.
(§3) Sensitization is measured as the ratio between observed and expected apoptosis or caspase activation from a combination of AKT kinase inhibitor and EGFR/erb inhibitor. The expected level of activity (Ae) is calculated by Ae=1−((1−A1)*(1−A2)) (3) where A1 and A2 are the activities of drugs 1 and 2 alone at the concentration used in the combination (Harvey, R. J., J. Theor. Biol. 74: 411-437, 1978).

T47D cells = experiment: Roche Cell Death ELISAPlus apoptosis assay in T47D cells (sensitization ratio); assay type: cell-based, human; details: for Apoptosis (FIG. 6): 10 μM GW572016 or 100 μM LY294002 separately
Protocol: T47D cells are human breast ductal carcinoma cells originally obtained from the American Type Culture Collection.
as §1, §2
The expected level of activity (Ae) is calculated by Ae=1−((1−A1)*(1−A2)) (3) where A1 and A2 are the activities of drugs 1 and 2 alone at the concentration used in the combination (Harvey, R. J., J. Theor. Biol. 74: 411-437, 1978).
Apoptosis was measured using the Roche Cell Death ELISA^Plus kit, and the relative percentage of apoptosis was determined for each combination.

MDA-MB468 cells = experiment: Roche Cell Death ELISAPlus apoptosis assay in MDA-MB468 cells (sensitization ratio); assay type: cell-based, human
Protocol: MDA-MB468 cells are human breast adenocarcinoma cells originally obtained from the American Type Culture Collection.
as §1, §2, §3
MDA-MB468 cells were incubated with varied concentrations of GW583340 for 24 h followed by an additional 4 h incubation with varied concentrations of LY294002. Apoptosis was measured using the Roche Cell Death ELISA^Plus kit, and the relative percentage of apoptosis was determined for each combination. When 1, 2, or 5 μM GW583340 were combined with 100 μM LY294002, SR values 3.4, 4.2 and 5.0, respectively, indicated significant synergism. At lower concentrations of LY294002, lesser degrees of synergism were observed.

[1] = GW572016 2 μM 24 h, then LY294002 0 μM 4 h
[2] = GW572016 5 μM 24 h, then LY294002 0 μM 4 h
[3] = GW572016 10 μM 24 h, then LY294002 0 μM 4 h
[4] = HN5, 24 h; concentration of the named drug within the 1:2 GW572016:LY294002 combo at Dm; read-out: Dm, drug in combo
[5] = HN5, 24 h; concentration of the named drug within the 1:10 GW572016:LY294002 combo at Dm; read-out: Dm, drug in combo
[6] = GW583340 1 μM 24 h, then LY294002 0 μM 4 h
[7] = GW583340 2 μM 24 h, then LY294002 0 μM 4 h
[8] = GW583340 5 μM 24 h, then LY294002 0 μM 4 h
[9] = HN5, 24 h; concentration of the named drug within the 1:2 GW589522:LY294002 combo at Dm; read-out: Dm, drug in combo
[10] = HN5, 24 h; concentration of the named drug within the 1:10 GW589522:LY294002 combo at Dm; read-out: Dm, drug in combo
[11] = Homo sapiens, HN5, 24 h; drug alone (Table 3); concentration giving 50% effect; read-out: Dm
[12] = GW583340 0 μM 24 h, then LY294002 4 μM 4 h
[13] = GW583340 0 μM 24 h, then LY294002 10 μM 4 h
[14] = GW583340 0 μM 24 h, then LY294002 20 μM 4 h
[15] = GW583340 0 μM 24 h, then LY294002 50 μM 4 h
[16] = GW583340 0 μM 24 h, then LY294002 100 μM 4 h
[17] = GW572016 0 μM 24 h, then LY294002 20 μM 4 h
[18] = GW572016 0 μM 24 h, then LY294002 50 μM 4 h
[19] = GW572016 0 μM 24 h, then LY294002 100 μM 4 h

Chain of AKT3 (Q9Y243 whole entry, species assumed, canonical isoform): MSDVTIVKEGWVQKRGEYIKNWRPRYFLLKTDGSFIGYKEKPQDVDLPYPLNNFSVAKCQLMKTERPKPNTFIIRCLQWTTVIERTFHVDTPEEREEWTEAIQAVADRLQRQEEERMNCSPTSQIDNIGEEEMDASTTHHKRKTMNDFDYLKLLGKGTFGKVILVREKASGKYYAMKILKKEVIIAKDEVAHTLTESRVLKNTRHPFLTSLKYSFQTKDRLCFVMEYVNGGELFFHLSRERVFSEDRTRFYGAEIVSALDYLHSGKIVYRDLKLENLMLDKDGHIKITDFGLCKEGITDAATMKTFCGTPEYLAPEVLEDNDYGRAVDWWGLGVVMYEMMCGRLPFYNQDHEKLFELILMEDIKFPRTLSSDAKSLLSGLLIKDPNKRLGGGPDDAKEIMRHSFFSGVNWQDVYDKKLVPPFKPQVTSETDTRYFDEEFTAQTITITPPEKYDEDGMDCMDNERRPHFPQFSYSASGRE
Chain of AKT1 (P31749 whole entry, species assumed, canonical isoform): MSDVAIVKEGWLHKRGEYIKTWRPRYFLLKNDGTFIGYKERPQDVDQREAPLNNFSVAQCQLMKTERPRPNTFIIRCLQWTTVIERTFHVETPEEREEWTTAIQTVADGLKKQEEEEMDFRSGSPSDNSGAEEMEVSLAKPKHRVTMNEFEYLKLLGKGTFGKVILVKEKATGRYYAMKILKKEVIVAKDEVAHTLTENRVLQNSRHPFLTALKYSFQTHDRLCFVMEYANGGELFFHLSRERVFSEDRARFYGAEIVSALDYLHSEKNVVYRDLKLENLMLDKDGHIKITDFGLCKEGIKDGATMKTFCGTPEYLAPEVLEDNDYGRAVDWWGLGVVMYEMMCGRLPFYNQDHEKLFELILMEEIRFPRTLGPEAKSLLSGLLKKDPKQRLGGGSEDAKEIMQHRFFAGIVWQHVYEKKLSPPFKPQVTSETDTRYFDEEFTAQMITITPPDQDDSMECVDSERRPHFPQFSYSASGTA
Chain of AKT2 (P31751 whole entry, species assumed, canonical isoform): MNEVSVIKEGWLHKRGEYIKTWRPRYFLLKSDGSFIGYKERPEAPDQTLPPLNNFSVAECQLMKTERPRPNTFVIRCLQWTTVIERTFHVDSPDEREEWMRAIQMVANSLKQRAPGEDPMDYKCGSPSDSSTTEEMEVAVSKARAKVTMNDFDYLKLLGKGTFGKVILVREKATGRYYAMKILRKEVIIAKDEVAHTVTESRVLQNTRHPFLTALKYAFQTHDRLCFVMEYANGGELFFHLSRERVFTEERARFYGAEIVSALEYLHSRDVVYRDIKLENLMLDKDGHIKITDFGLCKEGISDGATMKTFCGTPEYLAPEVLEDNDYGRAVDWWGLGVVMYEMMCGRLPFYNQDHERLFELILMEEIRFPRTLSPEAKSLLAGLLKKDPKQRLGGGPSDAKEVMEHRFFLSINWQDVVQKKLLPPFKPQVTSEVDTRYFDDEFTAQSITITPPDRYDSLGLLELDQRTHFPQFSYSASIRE

CCn1c(-c2nonc2N)nc2cncc(OC3CCNCC3)c21 [Ex 9 (tri-HCl salt), 4-[1-Ethyl-7-(piperidin-4-yloxy)-1H-imidazo[4,5-c]pyridin-2-yl]-furazan-3-ylamine]
IC50 (AKT2): 0.27 µM | IC50 (AKT3): 0.19 µM | IC50 (AKT1): 0.05 µM | Sensitization Ratio in HN5 with 5 μM GW589522A (HN5 cells; HN5; 5 μM GW589522A 24 h, then compound 8 μM 4 h): 10 @ 8

CCn1c(-c2nonc2N)nc2cncc(OC3CCNCC3)c21 [Ex 9, 4-[1-Ethyl-7-(piperidin-4-yloxy)-1H-imidazo[4,5-c]pyridin-2-yl]-furazan-3-ylamine]
IC50 (AKT2): 0.39 µM | IC50 (AKT3): 0.41 µM | IC50 (AKT1): 0.13 µM | Sensitization Ratio in HN5 with 5 μM GW589522A (HN5 cells; HN5; 5 μM GW589522A 24 h, then compound 4 μM 4 h): 2.6 @ 4 | Net Apoptosis (HN5 cells; HN5; GW572016 0 μM 24 h, then Ex 9 2 μM 4 h): 2.7% | Net Apoptosis (HN5 cells; HN5; GW572016 0 μM 24 h, then Ex 9 4 μM 4 h): 1.8% | Net Apoptosis (HN5 cells; HN5; GW572016 0 μM 24 h, then Ex 9 8 μM 4 h): 3.9% | Net Apoptosis (HN5 cells; HN5; GW572016 0 μM 24 h, then Ex 9 16 μM 4 h): 3.7% | Net Apoptosis (HN5 cells; HN5; GW572016 0 μM 24 h, then Ex 9 20 μM 4 h): 4.7% | Net Apoptosis (HN5 cells; HN5; GW589522 0 μM 24 h, then Ex 9 0.5 μM 4 h): 6.3% | Net Apoptosis (HN5 cells; HN5; GW589522 0 μM 24 h, then Ex 9 2 μM 4 h): 8.7% | Net Apoptosis (HN5 cells; HN5; GW589522 0 μM 24 h, then Ex 9 8 μM 4 h): 17.9%

CCn1c(-c2nonc2N)nc2c(-c3ccccc3)ncc(OCC3CCCNC3)c21.O=C(O)C(F)(F)F (stereo not drawn) [Ex 10, 4-{1-ethyl-4-phenyl-7-[(3-piperidinylmethyl)oxy]-1H-imidazo[4,5-c]pyridin-2-yl}-1,2,5-oxadiazol-3-amine trifluoroacetate]
IC50 (AKT2): 0.03 µM | IC50 (AKT3): 0.01 µM | IC50 (AKT1): 0.01 µM | Sensitization Ratio in HN5 with 5 μM GW589522A (HN5 cells; HN5; 5 μM GW589522A 24 h, then compound 10 μM 4 h): 3.7 @ 10

CCn1c(-c2nonc2N)nc2c(-c3cccc(Cl)c3)ncc(OCC3CCNCC3)c21.O=C(O)C(F)(F)F [Ex 11, 4-{4-(3-chlorophenyl)-1-ethyl-7-[(4-piperidinylmethyl)oxy]-1H-imidazo-[4,5-c]pyridin-2-yl}-1,2,5-oxadiazol-3-amine trifluoroacetate]
IC50 (AKT2): 0.02 µM | IC50 (AKT3): 0.01 µM | IC50 (AKT1): 0.03 µM | Sensitization Ratio in HN5 with 5 μM GW589522A (HN5 cells; HN5; 5 μM GW589522A 24 h, then compound 2.5 μM 4 h): 20 @ 2.5 | Sensitization Ratio in HN5 with 5 μM GW589522A (HN5 cells; HN5; 5 μM GW589522A 24 h, then compound 5 μM 4 h): 25 @ 5

CCn1c(-c2nonc2N)nc2c(-c3cccc(Cl)c3)ncc(OCCCCN)c21.O=C(O)C(F)(F)F [Ex 12, 4-[7-[(4-aminobutyl)oxy]-4-(3-chlorophenyl)-1-ethyl-1H-imidazo-[4,5-c]pyridin-2-yl]-1,2,5-oxadiazol-3-amine trifluoroacetate]
IC50 (AKT2): 0.04 µM | IC50 (AKT3): 0.01 µM | IC50 (AKT1): 0.04 µM | Sensitization Ratio in HN5 with 5 μM GW589522A (HN5 cells; HN5; 5 μM GW589522A 24 h, then compound 25 μM 4 h): 3.6 @ 25

CS(=O)(=O)CCNCc1ccc(-c2ccc3ncnc(Nc4ccc(OCc5cccc(F)c5)c(Cl)c4)c3c2)o1.Cc1ccc(S(=O)(=O)O)cc1.Cc1ccc(S(=O)(=O)O)cc1.O [GW572016, N-{3-Chloro-4-[(3-fluorobenzyl)oxy]phenyl}-6-[5-({[2-(methanesulphonyl)ethyl]amino}methyl)-2-furyl]-4-quinazolinamine ditosylate monohydrate]
Apoptosis (FIG. 6) (T47D cells): little effect | Net Apoptosis (T47D cells; [1]): 0.4% | Net avg A405 nm (T47D cells; [1]): 0.013 | Net Apoptosis (T47D cells; [2]): 0.3% | Net avg A405 nm (T47D cells; [2]): 0.013 | Net Apoptosis (T47D cells; [3]): 2.2% | Net avg A405 nm (T47D cells; [3]): 0.042 | EC50 (HN5 cells; [4]): 7.2 µM | EC50 (HN5 cells; [5]): 5.3 µM | Net Apoptosis (HN5 cells; HN5; GW572016 2 μM 24 h, then Ex 9 0 μM 4 h): −1.0% | Net Apoptosis (HN5 cells; HN5; GW572016 4 μM 24 h, then Ex 9 0 μM 4 h): 2.5% | Net Apoptosis (HN5 cells; HN5; GW572016 10 μM 24 h, then Ex 9 0 μM 4 h): 5.1% | EC50 (HN5 cells; Homo sapiens; HN5, 24 h; drug alone (Table 1); concentration giving 50% effect; read-out: Dm): 10.3 µM

CS(=O)(=O)CCNCc1nc(-c2ccc3ncnc(Nc4ccc(OCc5cccc(F)c5)c(Cl)c4)c3c2)cs1 [GW583340, (4-(3-Fluoro-benzyloxy)-3-chlorophenyl)-(6-(2-((2-methanesulphonyl-ethylamino)-methyl)-thiazol-4-yl)quinazolin-4-yl)-amine]
Net Apoptosis (MDA-MB468 cells; [6]): 4.8% | Net avg A405 nm (MDA-MB468 cells; [6]): 0.294 | Net Apoptosis (MDA-MB468 cells; [7]): 4.2% | Net avg A405 nm (MDA-MB468 cells; [7]): 0.286 | Net Apoptosis (MDA-MB468 cells; [8]): 7.4% | Net avg A405 nm (MDA-MB468 cells; [8]): 0.325

CS(=O)(=O)CCNCc1ccc(-c2ccc3ncnc(Nc4ccc(OCc5cccc(F)c5)c(Br)c4)c3c2)o1 [GW589522, (4-(3-Fluoro-benzyloxy)-3-bromophenyl)-(6-(5-((2-methanesulphonyl-ethylamino)-methyl)-furan-2-yl)quinazolin-4-yl)-amine]
EC50 (HN5 cells; [9]): 8.6 µM | EC50 (HN5 cells; [10]): 4.4 µM | Net Apoptosis (HN5 cells; HN5; GW589522 1.56 μM 24 h, then Ex 9 0 μM 4 h): −1.0% | Net Apoptosis (HN5 cells; HN5; GW589522 3.12 μM 24 h, then Ex 9 0 μM 4 h): 2.5% | Net Apoptosis (HN5 cells; HN5; GW589522 6.25 μM 24 h, then Ex 9 0 μM 4 h): 2.5% | Net Apoptosis (HN5 cells; HN5; GW589522 12.5 μM 24 h, then Ex 9 0 μM 4 h): 5.1% | EC50 (HN5 cells; [11]): 15.9 µM

O=c1cc(N2CCOCC2)oc2c(-c3ccccc3)cccc12 [LY294002, 2-(4-morpholinyl)-8-phenyl-4H-1-benzopyran-4-one, reference compound]
Net Apoptosis (MDA-MB468 cells; [12]): 4.8% | Net avg A405 nm (MDA-MB468 cells; [12]): 0.294 | Net Apoptosis (MDA-MB468 cells; [13]): 6.5% | Net avg A405 nm (MDA-MB468 cells; [13]): 0.314 | Net Apoptosis (MDA-MB468 cells; [14]): 8.6% | Net avg A405 nm (MDA-MB468 cells; [14]): 0.338 | Net Apoptosis (MDA-MB468 cells; [15]): 9.0% | Net avg A405 nm (MDA-MB468 cells; [15]): 0.344 | Net Apoptosis (MDA-MB468 cells; [16]): 13.7% | Net avg A405 nm (MDA-MB468 cells; [16]): 0.399 | Apoptosis (FIG. 6) (T47D cells): little effect | Net Apoptosis (T47D cells; [17]): 2.2% | Net avg A405 nm (T47D cells; [17]): 0.041 | Net Apoptosis (T47D cells; [18]): 3.6% | Net avg A405 nm (T47D cells; [18]): 0.063 | Net Apoptosis (T47D cells; [19]): 4.5% | Net avg A405 nm (T47D cells; [19]): 0.077 | EC50 (HN5 cells; [4]): 14.5 µM | EC50 (HN5 cells; [9]): 17.2 µM | EC50 (HN5 cells; [5]): 52.9 µM | EC50 (HN5 cells; [10]): 44.3 µM | EC50 (HN5 cells; Homo sapiens, HN5, 24 h; drug alone (Table 1); concentration giving 50% effect; read-out: Dm): 186 µM | EC50 (HN5 cells; [11]): 123 µM
